Reference: the supplement of paper PMC11451515

How the values were obtained:
Assay in all cases: AUC of viability dose-response curve (% viability x log10 dose units); higher = less sensitive
Details in all cases: 48 h
[1] = tested on: NOMO1
Procedure, shortened: (§1)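 Leukemia cells adapted to each medium were seeded at 500 or 1000 cells/well in 1536-well plates and dosed with library compounds in DMSO at 11 threefold doses from 47 μM to 0.79 nM for 48 h at 37°C. CellTiter-Glo One luminescence was normalised per plate to DMSO and cell-free wells, then fitted with a four-parameter log-logistic model over log10 doses. Area under the curve was taken from this fit by the trapezoidal rule, with curves above full viability scaled and curves failing quality control removed.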

[2] = tested on: P12-Ichikawa
Procedure, shortened: as §1

[3] = tested on: SEM cells
Procedure, shortened: as §1

[4] = RPMI 5 mM glucose + 10% dialyzed FBS

SMILES	AUC of viability dose-response curve ([1]; HPLM + 10% dialyzed FBS)	AUC of viability dose-response curve ([1]; RPMI 5 mM glucose + 10% FBS)	AUC of viability dose-response curve [1, 4]	AUC of viability dose-response curve ([2]; HPLM + 10% dialyzed FBS)	AUC of viability dose-response curve ([2]; RPMI 5 mM glucose + 10% FBS)	AUC of viability dose-response curve [2, 4]	AUC of viability dose-response curve ([3]; HPLM + 10% dialyzed FBS)	AUC of viability dose-response curve ([3]; RPMI 5 mM glucose + 10% FBS)	AUC of viability dose-response curve [3, 4]
COc1ccc2c(c[n+](C)c3c4cc5c(cc4ccc23)OCO5)c1OC	438	447	449	423	406	404	407	397	402
CN1C(=O)C(Cc2c[nH]c3ccccc23)NC1=S (configuration not stated)	467	448	451	458	450	461	437	405	422
C[C@H]1O[C@H](O[C@H]2[C@H](O)[C@@H](O)[C@H](O[C@@H]2CO)O[C@H]3[C@H](O)[C@@H](O)C(O)O[C@@H]3CO)[C@H](O)[C@@H](O)[C@@H]1N[C@H]4\C=C(CO)/[C@@H](O)[C@H](O)[C@H]4O (some centres not stated)	330	309	319	321	335	374	437	456	432
